# Legend:
# Type in all cases: cell-based
# TRPA1 [1] = biological target: T1, TRPA1 (Rattus norvegicus, UniProt Q6RI86); experiment: whole-cell patch clamp in transfected HEK293 cells, […] fatty acid
# TRPA1 [2] = biological target: T1, TRPA1; experiment: patch clamp of native TRPA1 in RIN14B cells, block of DHA current at […]
# TRPA1 [3] = biological target: T1, TRPA1; experiment: whole-cell patch clamp in transfected HEK293 cells (-60 mV), with NAC
# TRPA1 [4] = biological target: TRPA1 (Mus musculus, UniProt Q8BLA8); experiment: whole-cell patch clamp of native TRPA1 in STC-1 cells (-60 mV)
# Text: whole-cell patch clamp of native TRPA1 in STC-1 cells (-60 mV) on TRPA1 | Concentration-response curve for AITC evoked currents in STC-1 cells
# T1 sequence (Q6RI86 whole entry): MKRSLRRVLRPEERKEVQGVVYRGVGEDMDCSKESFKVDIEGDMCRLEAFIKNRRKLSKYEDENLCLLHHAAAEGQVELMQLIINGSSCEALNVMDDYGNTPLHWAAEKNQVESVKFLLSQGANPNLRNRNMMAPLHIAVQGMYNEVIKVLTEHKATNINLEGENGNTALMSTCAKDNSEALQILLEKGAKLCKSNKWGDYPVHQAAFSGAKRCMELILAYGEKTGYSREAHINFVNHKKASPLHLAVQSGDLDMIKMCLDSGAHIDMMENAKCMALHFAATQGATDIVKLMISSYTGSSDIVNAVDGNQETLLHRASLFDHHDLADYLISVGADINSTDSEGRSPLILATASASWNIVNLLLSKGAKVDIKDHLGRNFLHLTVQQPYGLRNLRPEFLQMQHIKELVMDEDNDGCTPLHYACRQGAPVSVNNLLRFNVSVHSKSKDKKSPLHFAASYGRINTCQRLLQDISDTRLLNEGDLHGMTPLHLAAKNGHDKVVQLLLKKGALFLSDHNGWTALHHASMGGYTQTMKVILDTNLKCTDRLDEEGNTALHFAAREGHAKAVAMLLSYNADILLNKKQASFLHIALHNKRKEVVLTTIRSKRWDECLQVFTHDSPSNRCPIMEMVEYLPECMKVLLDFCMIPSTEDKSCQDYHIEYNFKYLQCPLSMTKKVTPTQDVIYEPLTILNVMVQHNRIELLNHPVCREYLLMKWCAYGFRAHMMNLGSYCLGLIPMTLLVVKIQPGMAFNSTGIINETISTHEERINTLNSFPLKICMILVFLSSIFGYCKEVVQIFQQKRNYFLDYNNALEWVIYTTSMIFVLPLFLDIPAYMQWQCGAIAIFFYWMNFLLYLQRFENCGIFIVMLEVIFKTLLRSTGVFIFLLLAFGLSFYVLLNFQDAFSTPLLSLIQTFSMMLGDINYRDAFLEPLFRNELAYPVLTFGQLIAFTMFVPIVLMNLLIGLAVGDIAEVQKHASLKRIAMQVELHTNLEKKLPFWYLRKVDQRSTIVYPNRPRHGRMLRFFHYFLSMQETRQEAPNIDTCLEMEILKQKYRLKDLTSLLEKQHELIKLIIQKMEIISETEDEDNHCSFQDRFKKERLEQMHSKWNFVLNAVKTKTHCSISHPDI
# TRPA1 (Mus musculus, UniProt Q8BLA8), sequence (Q8BLA8 whole entry): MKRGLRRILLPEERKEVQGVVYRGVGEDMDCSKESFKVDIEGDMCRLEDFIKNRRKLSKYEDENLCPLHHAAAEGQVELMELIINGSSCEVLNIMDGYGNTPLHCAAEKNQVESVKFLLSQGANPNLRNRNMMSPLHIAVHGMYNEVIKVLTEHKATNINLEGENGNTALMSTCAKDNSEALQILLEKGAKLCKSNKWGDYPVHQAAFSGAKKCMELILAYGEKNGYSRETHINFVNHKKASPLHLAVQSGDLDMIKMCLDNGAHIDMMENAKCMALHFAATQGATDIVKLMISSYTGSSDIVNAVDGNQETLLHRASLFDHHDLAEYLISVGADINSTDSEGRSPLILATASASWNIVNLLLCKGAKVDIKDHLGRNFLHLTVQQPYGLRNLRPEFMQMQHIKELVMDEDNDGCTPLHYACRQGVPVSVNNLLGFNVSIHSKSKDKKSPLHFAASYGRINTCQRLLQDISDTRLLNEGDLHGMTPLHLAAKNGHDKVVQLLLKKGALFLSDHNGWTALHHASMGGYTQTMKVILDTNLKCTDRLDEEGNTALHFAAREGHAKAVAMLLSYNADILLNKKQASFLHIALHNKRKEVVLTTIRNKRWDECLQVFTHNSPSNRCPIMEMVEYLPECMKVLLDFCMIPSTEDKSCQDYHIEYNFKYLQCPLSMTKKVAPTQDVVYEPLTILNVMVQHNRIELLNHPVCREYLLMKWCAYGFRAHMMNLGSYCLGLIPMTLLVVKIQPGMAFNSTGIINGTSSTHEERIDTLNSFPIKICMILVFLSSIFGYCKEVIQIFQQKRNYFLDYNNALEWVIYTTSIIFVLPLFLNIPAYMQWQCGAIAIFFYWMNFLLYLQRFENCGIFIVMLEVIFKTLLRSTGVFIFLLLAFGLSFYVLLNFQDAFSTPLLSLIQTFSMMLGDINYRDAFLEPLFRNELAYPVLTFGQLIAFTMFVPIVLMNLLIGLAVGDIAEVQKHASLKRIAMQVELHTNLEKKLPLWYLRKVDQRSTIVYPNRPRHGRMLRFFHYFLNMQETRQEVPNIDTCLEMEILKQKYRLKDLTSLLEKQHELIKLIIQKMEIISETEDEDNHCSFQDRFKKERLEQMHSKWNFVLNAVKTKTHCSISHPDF
structure (smiles),measurement,setting,value
"CCCCC/C=C\C/C=C\C/C=C\C/C=C\CCCC(=O)O [AA, arachidonic acid]","whole-cell patch clamp in transfected HEK293 cells, 100 μM fatty acid",TRPA1 [1],"Thus, AA, EPA and DHA possess approximate equivalent efficacy."
CC(C)c1ccc(NC(=O)Cn2cnc3c2c(=O)n(C)c(=O)n3C)cc1 [HC030031],"patch clamp of native TRPA1 in RIN14B cells, block of DHA current at 50 μM",TRPA1 [2],"outwardly-rectified conductance in voltage-clamped STC-1 and RIN14B cells, that is inhibited by the TRPA1 antagonist, HC030031"
"CC/C=C\C/C=C\C/C=C\C/C=C\C/C=C\C/C=C\CCC(=O)O [DHA, docosahexaenoic acid]",EC50,TRPA1 [3],41 µM
"C=CCN=C=S [AITC, allyl isothiocyanate]",EC50,TRPA1 [4],29 µM
